Source: patent US6111080A, “Monoclonal antibodies” (Washington University, priority 1993, dated 2000)

Tested on: RGD-binding receptor on PMN (B6H12 antigen, heterodimer of 140 kd and 105 kd)
Experiment: Cytochrome c-RGDS binding assay (inhibition of 125I-cc-RGDS specific binding to PMN)
Design: species or system human
Settings: unlabelled inhibitor 500 μg/ml; 40 μg 125I-cc-RGDS, 1.0 × 10^6 PMN, 5,000 units catalase in 1 ml, 30 min at 37° C.; relative to cc-C
Description: Cytochrome c-RGDS was radioiodinated by chloroglycoluril [Markwell and Fox, Biochemistry 17, 4807-4817 (1978)] for 15 min at 0° C. PMN (5.0×10^5) in HBSS^++ -1% OVA were incubated with 10 μg of radiolabelled cc-RGDS in the presence of 5K U/ml of catalase and 293 μg of unlabelled cc-C in a final volume of 250 μl. The reaction mixtures were incubated in 1.5 ml Eppendorf tubes for 30 min at 37° C. The mixtures were overlayered on Versilube (General Electric) and centrifuged at 12,000×g to assess pellet associated radioactivity. Specific binding was determined by subtracting the radioactivity bound in the presence of […] of unlabelled cc-RGDS from the total radioactivity. Unlabelled cc-C was included in the reaction to control for any binding due to cytochrome c and not specifically due to the RGDS moiety. For inhibition tests, the various inhibitors were included in the reaction at the indicated concentrations. Antibodies were incubated with the PMN at the indicated concentrations for 15 min at room temperature prior to the addition of the other reactants.
^a PMN (1.0 × 10^6) were incubated with 40 μg of ^12
Icc-RGDS with the indicated concentrations of unlabelled inhibitors in th
presence of 5,000 units of catalase in 1 ml for 30 min at 37° C.
The PMN were centrifuged through oil and the pelletassociated counts
assessed. […]
^b Calculated from the mean cpm's. […]

GRGDSC
% I (percent inhibition of cc-RGDS specific binding to PMN): 79.6%
